EP1762239A1, “Lofexidine for intraspinal administration” (Texcontor Etablissement, priority 2005, dated 2007)
Where “and” joins values, the source holds several entries; their conditions need not be identical. Identical values can stand only once. Counter-ions that a name gives are not always drawn.

How the values were obtained:
[1] = given orally; dosages of up to 1200 µg per day; Human Reproduction, Vol. 16, No. 8, 2001; cited from earlier work
[2] = systemically (e.g. orally or by intravenous injection), especially at high doses (e.g. >600 µg per day); cited from earlier work
[3] = test system: rat model of neuropathic pain; experiment: Nerve ligation-induced chronic (neuropathic) pain model, mechanical allodynia by electronic von Frey; format: in vivo, Wistar rats; details: for Tactile Pressure (g) Post-Treatment Average / Tactile Pressure (g) Δ Treatment Average: group of 5; for Tactile Pressure (g) Post-Treatment / Tactile Pressure (g) Δ Treatment: individual animal; for Inhibition (%): Δ Treatment/Δ Blank x 100%
Method: Lofexidine was evaluated for possible analgesic activity in neuropathic pain using a nerve ligation-induced chronic pain model in rats. Lofexidine HCl was administered intrathecally (ITH) at 3.2 and 10 µg/animal and analgesia was measured at 15, 30, 60 and 120 minutes post-dosing using an Electronic Von Frey Aesthesiometer (IITC, USA) with a #12 supertip. A 50 % or greater (≥50%) inhibition relative to blank indicates possible analgesic activity. Lofexidine HCl at doses of 3.2 and 10 µg/animal were administered intrathecally. Sterile Saline (obtained from Sintong Biotech Company, Taiwan) was used as vehicle and dosing volume was 10 µl/animal. Male Wistar rats provided by Biolasco Taiwan (under a Charles River Laboratories Technology Licensee) were used. Space allocation for 6 animals was 45 x 23 x 21 cm. Animals were housed in APEC^R cages and maintained in a controlled temperature (22-23°C) and humidity (60-70%) environment with 12 hours light dark cycles for at least one week in MDS Pharma Services - Taiwan Laboratory prior to use. Free access to standard lab chow for rats (Lab Diet, Rodent Diet, PMI Nutrition International, USA) and tap water was granted. All aspects of this work including housing, experimentation and disposal of animals were performed in general accordance with the Guide for the Care and Use of Laboratory Animals (National Academy Press, Washington, D. C, 1996). Male Wistar rats weighing 160 to 200 g were used. Under pentobarbital (50 mg/kg, 5 ml/kg, i.p.) anesthesia, the sciatic nerve was exposed at mid-thigh level. Three ligatures (4-0 silk suture), about 1 mm apart, were loosely tied around th e nerve. The animals were then housed individually in cages with soft bedding for 7 days before testing for mechanical allodynia. On the test day, rats were placed under inverted plexiglas cages on a wire mesh rack and allowed to acclimatise for 20 to 30 minutes. Allodynia was evaluated by responsiveness to a #12 Supertip® (IITC, USA) applied beneath the mesh floor perpendicular to the central plantar surface of the left hind paw. The tip was gradually applied with sufficient force to cause slight buckling of the filament against the paw. A positive response to the applied tactile pressure, noted by sharp withdrawal of the paw, was recorded automatically by an Electronic Von Frey Aesthesiometer (2290CE Electrovonfrey®, IITC, USA). The endpoint is the withdrawal threshold (gm) to von Frey filament, serving as a measure of analgesic activity. Rats were pre-selected (for presence of allodynia) for experimentation only if the withdrawal threshold 7 days after nerve ligation (pre-treatment) was reduced by 10 grams of force relative to the response of the individual paw before nerve ligation (pre-ligation). Test substance or vehicle was administered intrathecally (3.2 µg and 10 µg/animal) to groups of 5 animals and the level of allodynia was again determined (at 15, 30, 60 and 120 minutes post-treatment). Allodynia is calculated as follows: % Inhibition=Δ Treatment/Δ Blank x 100%; where Δ Treatment is Tactile Pressure [(Post-Treatment) -(Pre-Treatment)] and Δ Blank is Tactile Pressure [(Pre-Ligation) - (Pre-Treatment)]. A 50 percent or greater (≥50%) inhibition relative to blank indicates possible analgesic activity.

[4] = Brief observation of general behavior after intrathecal injection; format: in vivo, Wistar rats; details: 0.00032 mg/rat and 0.0032 mg/rat (ITH)
Method: Evaluation for pain was performed at 24 hours postoperatively between 08:00 and 16:00h. Each animal was monitored at 15, 30, 60 and 120 minutes after intrathecal administration of lofexidine.HCl. The rats were placed under inverted plexiglas cages on a wire mesh rack and a brief observation of general behavior post-injection was made. The rigid tip part of the Electronic Von Frey Aesthesiometer was applied perpendicularly from underneath the mesh floor to the four points around the wound surface of the animal with slow upward force against the paw. A positive response to tactile pressure was recorded if the paw was sharply withdrawn; ambulation was considered an ambiguous response, and in such cases, the stimulus was reapplied. Mean values from 4 points for each rat and from 5 rats in each group were calculated. Percent inhibition due to treatment relative to pre-treatment pain response was calculated according to the formula: Tactile Pressure [(Post-Treatment) - (Pre-Treatment)]/[(Pre-Incision) - (Pre-Treatment)] x 100%. Inhibition by 50% or more (≥50%) is considered significant analgesic effect. Unpaired Student's t test is applied for comparison of the % inhibition values between test substance-and vehicle-treated groups. Significance is considered at P<0.05 level

[5] = 3.2 µg/animal ITH, 120 Minutes, listed as Lofexidine HCI
[6] = 10 µg/animal ITH, 120 Minutes, listed as Lofexidine HCI

SMILES: CC(Oc1c(Cl)cccc1Cl)C1=NCCN1 (stereo not drawn) [Lofexidine HCl]
- effectiveness for treatment of chronic pelvic pain [1]: not effective
- common symptoms associated with use [2]: drowsiness, sedation and blood pressure and heart rate increases
- analgesic activity ([3]; 3.2 µg/animal): low levels of analgesic activity
- Tactile Pressure (g) Post-Treatment Average ([3]; 3.2 µg/animal ITH, 15 Minutes): 12.5 g
- Tactile Pressure (g) Δ Treatment Average ([3]; 3.2 µg/animal ITH, 15 Minutes, Δ Blank 30.2): 1.3 g
- Tactile Pressure (g) Post-Treatment ([3]; 3.2 µg/animal ITH, 15 Minutes): 8.9 g and 5.8 g and 23.3 g and 13.4 g and 10.9 g
- Tactile Pressure (g) Δ Treatment ([3]; 3.2 µg/animal ITH, 15 Minutes): -1.8 g and -5.2 g and 8.5 g and 6.3 g and -1.1 g
- Inhibition (%) ([3]; 3.2 µg/animal ITH, 15 Minutes): 4%
- Tactile Pressure (g) Post-Treatment Average ([3]; 3.2 µg/animal ITH, 30 Minutes): 10.1 g
- Tactile Pressure (g) Δ Treatment Average ([3]; 3.2 µg/animal ITH, 30 Minutes, Δ Blank 30.2): -1.1 g
- Tactile Pressure (g) Post-Treatment ([3]; 3.2 µg/animal ITH, 30 Minutes): 7.4 g and 14.2 g and 8.5 g and 10.0 g and 10.2 g
- Tactile Pressure (g) Δ Treatment ([3]; 3.2 µg/animal ITH, 30 Minutes): -3.8 g and -0.6 g and 1.4 g and -2.0 g and -0.5 g
- Inhibition (%) ([3]; 3.2 µg/animal ITH, 30 Minutes): -4%
- Tactile Pressure (g) Post-Treatment Average ([3]; 3.2 µg/animal ITH, 60 Minutes): 9.3 g
- Tactile Pressure (g) Δ Treatment Average ([3]; 3.2 µg/animal ITH, 60 Minutes, Δ Blank 30.2): -1.8 g
- Tactile Pressure (g) Post-Treatment ([3]; 3.2 µg/animal ITH, 60 Minutes): 7.5 g and 12.7 g and 11.3 g and 6.5 g and 8.7 g
- Tactile Pressure (g) Δ Treatment ([3]; 3.2 µg/animal ITH, 60 Minutes): -3.7 g and -2.1 g and 4.2 g and -5.5 g and -2.0 g
- Inhibition (%) ([3]; 3.2 µg/animal ITH, 60 Minutes): -6%
- Tactile Pressure (g) Post-Treatment Average ([3]; 3.2 µg/animal ITH, 120 Minutes): 9.2 g
- Tactile Pressure (g) Δ Treatment Average ([3]; 3.2 µg/animal ITH, 120 Minutes, Δ Blank 30.2): -2.0 g
- Tactile Pressure (g) Post-Treatment [3, 5]: 6.1 g and 12.4 g and 7.9 g and 10.8 g and 8.6 g
- Tactile Pressure (g) Δ Treatment [3, 5]: -5.1 g and -2.4 g and 0.8 g and -1.2 g and -2.1 g
- Inhibition (%) ([3]; 3.2 µg/animal ITH, 120 Minutes): -7%
- Tactile Pressure (g) Post-Treatment Average ([3]; 10 µg/animal ITH, 15 Minutes): 23.3 g
- Tactile Pressure (g) Δ Treatment Average ([3]; 10 µg/animal ITH, 15 Minutes, Δ Blank 27.9): 13.0 g
- Tactile Pressure (g) Post-Treatment ([3]; 10 µg/animal ITH, 15 Minutes): >36.8 g and 12.4 g and 17.2 g and 26.7 g and 23.6 g
- Tactile Pressure (g) Δ Treatment ([3]; 10 µg/animal ITH, 15 Minutes): 24.7 g and 1.5 g and 11.0 g and 15.7 g and 12.3 g
- Inhibition (%) ([3]; 10 µg/animal ITH, 15 Minutes): 47%
- Tactile Pressure (g) Post-Treatment Average ([3]; 10 µg/animal ITH, 30 Minutes): 26.4 g
- Tactile Pressure (g) Δ Treatment Average ([3]; 10 µg/animal ITH, 30 Minutes, Δ Blank 27.9): 16.1 g
- Tactile Pressure (g) Post-Treatment ([3]; 10 µg/animal ITH, 30 Minutes): 42.6 g and 7.0 g and >31.5 g and >35.5 g and 15.6 g
- Tactile Pressure (g) Δ Treatment ([3]; 10 µg/animal ITH, 30 Minutes): 30.5 g and -3.9 g and 25.3 g and 24.5 g and 4.3 g
- Inhibition (%) ([3]; 10 µg/animal ITH, 30 Minutes): 58%
- Tactile Pressure (g) Post-Treatment Average ([3]; 10 µg/animal ITH, 60 Minutes): 20.8 g
- Tactile Pressure (g) Δ Treatment Average ([3]; 10 µg/animal ITH, 60 Minutes, Δ Blank 27.9): 10.5 g
- Tactile Pressure (g) Post-Treatment ([3]; 10 µg/animal ITH, 60 Minutes): 20.5 g and 15.1 g and 36.5 g and 23.2 g and 8.9 g
- Tactile Pressure (g) Δ Treatment ([3]; 10 µg/animal ITH, 60 Minutes): 8.4 g and 4.2 g and 30.3 g and 12.2 g and -2.4 g
- Inhibition (%) ([3]; 10 µg/animal ITH, 60 Minutes): 38%
- Tactile Pressure (g) Post-Treatment Average ([3]; 10 µg/animal ITH, 120 Minutes): 11.0 g
- Tactile Pressure (g) Δ Treatment Average ([3]; 10 µg/animal ITH, 120 Minutes, Δ Blank 27.9): 0.6 g
- Tactile Pressure (g) Post-Treatment [3, 6]: 13.5 g and 10.8 g and 11.8 g and 12.3 g and 6.4 g
- Tactile Pressure (g) Δ Treatment [3, 6]: 1.4 g and -0.1 g and 5.2 g and 1.3 g and -4.9 g
- Inhibition (%) ([3]; 10 µg/animal ITH, 120 Minutes): 2%
- peak of analgesic activity, time post-dosing ([3]; 10 µg/animal intrathecal): 30 min
- analgesic activity ([3]; 10 µg/animal intrathecal, 30 minutes post-injection): significant analgesic activity
- analgesic activity ([3]; 10 µg/animal intrathecal, 120 minutes post-dosing): no longer evident
- behavioral changes in treated animals [4]: did not cause behavioral changes
- gait after intrathecal injection ([4]; all treated animals): normal gait
